Measured values as given in patent US20100311748A1, “HETEROCYCLIC AMIDES USEFUL FOR THE TREATMENT OF CANCER AND PSORIASIS” (ASTRAZENECA AB, priority 2007, published 2010).

Tested on: Hedgehog pathway
Test: Hedgehog Pathway Cellular Differentiation Assay (alkaline phosphatase production in C3H10T1/2 cells with Shh ligand)
Assay type: cell-based
Conditions: 72 h; for inhibition at 3 µM / IC50: Mus musculus; for inhibition at 3 µM: C3H 10T1/2, 3 μM compound; for IC50: C3H 10T1/2, Shh ligand conditioned media, alkaline phosphatase (pNp, 405 nm)
Procedure: Hedgehog Pathway Cellular Differentiation Assay The ability of compounds of the invention to inhibit the Hedgehog pathway can be determined by the following cell differentiation assay. C3H10T1/2 cells were plated into 384 well plates at a concentration of 5000 cells/well in DMEM/10% FBS. The following day the media was changed to 20% conditioned media (low serum media DMEM/2% FBS+Shh ligand). Compounds were solubilized in 100% DMSO to a concentration of 10 mM and then serially diluted three fold in 100% DMSO. The highest concentration in the cell plate was 30 μM and the lowest was 3 nM. The compounds were then added to the cells. Cell plates were incubated with the compound for 72 h and then assayed for alkaline phosphatase production using pNp as a substrate. Briefly, after 72 h of incubation, the media was aspirated from the cells and washed with 30 μl of PBS. PBS was aspirated off the cells and 15 μl of 1×RIPA cell lysis buffer is added on to the cells. The cell plates are then incubated at −80° C. for 30 minutes to insure proper cell lysis. The plates were then thawed back to RT. The substrate solution containing pNp at 1 mg/mL in diethanolamine buffer pH 9.8 was then added onto the lysed cells. The plates were incubated at 30° C. for color development and read at an absorbance of 405 nm. The percent inhibition and IC50 value was then calculated from the absorbance data using standard procedures.

[1] = Shh ligand conditioned media, alkaline phosphatase

Structure (SMILES)	inhibition at 3 µM [1] [%]	% Inhibition at 3 μM (3 μM compound, Shh ligand conditioned media, alkaline phosphatase) [%]	IC50 [nM]
Cc1ccc(-c2c[nH]cn2)cc1NC(=O)c1ccc(OCc2ccccn2)cc1 [Example 1, N-[5-(1H-imidazol-4-yl)-2-methyl-phenyl]-4-(pyridin-2-ylmethoxy)benzamide]	64.9	–	–
Cc1ccc(-c2ncc(CN3CCN(C)CC3)s2)cc1NC(=O)c1ccc(OCc2ccccn2)cc1 [Example 2, N-[2-methyl-5-[5-[(4-methylpiperazin-1-yl)methyl]1,3-thiazol-2-yl]phenyl]-4-(pyridin-2-ylmethoxy)benzamide]	72.3	–	–
Cc1ccc(-c2ccc3cc[nH]c3n2)cc1NC(=O)c1ccc(OCc2ccccn2)cc1 [Example 3, N-[5-(5,7-diazabicyclo[4.3.0]nona-2,4,8,10-tetraen-4-yl)-2-methyl-phenyl]-4-(pyridin-2-ylmethoxy)benzamide]	–	67.3	–
Cc1ccc(-c2ncc(Cn3cccn3)s2)cc1NC(=O)c1ccc(OCc2ccccn2)cc1 [Example 4, N-[2-methyl-5-[5-(pyrazol-1-ylmethyl)1,3-thiazol-2-yl]phenyl]-4-(pyridin-2-ylmethoxy)benzamide]	65.4	–	–
Cc1ccc(-c2cn3ccsc3n2)cc1NC(=O)c1ccc(OCc2ccccn2)cc1 [Example 5, N-[2-methyl-5-(4-thia-1,6-diazabicyclo[3.3.0]octa-2,5,7-trien-7-yl)phenyl]-4-(pyridin-2-ylmethoxy)benzamide]	68.8	–	–
Cc1ccc(-c2ccc(N)cn2)cc1NC(=O)c1ccc(OCc2ccccn2)cc1 [Example 6, N-[5-(5-aminopyridin-2-yl)-2-methyl-phenyl]-4-(pyridin-2-ylmethoxy)benzamide]	65.7	–	–
Cc1ccc(-c2cccnc2)cc1NC(=O)c1ccc(OCc2ccccn2)cc1 [Example 7, N-(2-methyl-5-pyridin-3-yl-phenyl)-4-(pyridin-2-ylmethoxy)benzamide]	70.8	–	–
Cc1ccc(-c2cccc(N)n2)cc1NC(=O)c1ccc(OCc2ccccn2)cc1 [Example 8, N-[5-(6-aminopyridin-2-yl)-2-methyl-phenyl]-4-(pyridin-2-ylmethoxy)benzamide]	66.5	–	–
Cc1ccc(-c2ccccn2)cc1NC(=O)c1ccc(OCc2ccccn2)cc1 [Example 9, N-(2-methyl-5-pyridin-2-yl-phenyl)-4-(pyridin-2-ylmethoxy)benzamide]	60.5	–	120
Cc1ccc(-c2cnc(N)cn2)cc1NC(=O)c1ccc(OCc2ccccn2)cc1 [Example 10, N-[5-(5-aminopyrazin-2-yl)-2-methyl-phenyl]-4-(pyridin-2-ylmethoxy)benzamide]	63.5	–	–
Cc1ccc(-c2ccncc2)cc1NC(=O)c1ccc(OCc2ccccn2)cc1 [Example 11, N-(2-methyl-5-pyridin-4-yl-phenyl)-4-(pyridin-2-ylmethoxy)benzamide]	75	–	–
Cc1ccc(-c2ncc(CN3CCOCC3)s2)cc1NC(=O)c1ccc(OCc2ccccn2)cc1 [Example 12, N-[2-methyl-5-[5-(morpholin-4-ylmethyl)1,3-thiazol-2-yl]phenyl]-4-(pyridin-2-ylmethoxy)benzamide]	74.2	–	–
Cc1ccc(-c2nccn2C)cc1NC(=O)c1ccc(OCc2ccccn2)cc1 [Example 13, N-[2-methyl-5-(1-methylimidazol-2-yl)phenyl]-4-(pyridin-2-ylmethoxy)benzamide]	64.9	–	–
Cc1ccc(-c2nc3cc([N+](=O)[O-])ccc3[nH]2)cc1NC(=O)c1ccc(OCc2ccccn2)cc1 [Example 14, N-[2-methyl-5-(5-nitro-1H-benzoimidazol-2-yl)phenyl]-4-(pyridin-2-ylmethoxy)benzamide]	79.2	–	–
Cc1ccc(-c2ccc(N)nn2)cc1NC(=O)c1ccc(OCc2ccccn2)cc1 [Example 15, N-[5-(6-aminopyridazin-3-yl)-2-methyl-phenyl]-4-(pyridin-2-ylmethoxy)benzamide]	80.7	–	–
Cc1ccc(-c2nccs2)cc1NC(=O)c1ccc(OCc2ccccn2)cc1 [Example 16, N-(2-methyl-5-1,3-thiazol-2-yl-phenyl)-4-(pyridin-2-ylmethoxy)benzamide]	68.6	–	–
Cc1ccc(-c2nc3ccccc3s2)cc1NC(=O)c1ccc(OCc2ccccn2)cc1 [Example 17, N-(5-benzothiazol-2-yl-2-methyl-phenyl)-4-(pyridin-2-ylmethoxy)benzamide]	53.5	–	–
Cc1ccc(-c2ncnc3nc[nH]c23)cc1NC(=O)c1ccc(OCc2ccccn2)cc1 [Example 18, N-[2-methyl-5-(7H-purin-6-yl)phenyl]-4-(pyridin-2-ylmethoxy)benzamide]	48.4	–	30

Structure (SMILES)	inhibition at 3 µM [1] [%]	% Inhibition at 3 μM (3 μM compound, Shh ligand conditioned media, alkaline phosphatase) [%]	IC50 [nM]
CCOC(=O)c1sc(-c2ccc(C)c(NC(=O)c3ccc(OCc4ccccn4)cc3)c2)nc1C [Example 19, ethyl 4-methyl-2-[4-methyl-3-[[4-(pyridin-2-ylmethoxy)benzoyl]amino]phenyl]1,3-thiazole-5-carboxylate]	52	–	–
Cc1ccc(-c2ncc(C)n2C)cc1NC(=O)c1ccc(OCc2ccccn2)cc1 [Example 20, N-[5-(1,5-dimethylimidazol-2-yl)-2-methyl-phenyl]-4-(pyridin-2-ylmethoxy)benzamide]	58.1	–	< 3
Cc1ccc(-c2cn(C)cn2)cc1NC(=O)c1ccc(OCc2ccccn2)cc1 [Example 21, N-[2-methyl-5-(1-methyl-1H-imidazol-4-yl)phenyl]-4-(pyridin-2-ylmethoxy)benzamide]	73.4	–	–
Cc1ccc(-c2cnc3ccccc3n2)cc1NC(=O)c1ccc(OCc2ccccn2)cc1 [Example 22, N-(2-methyl-5-quinoxalin-2-yl-phenyl)-4-(pyridin-2-ylmethoxy)benzamide]	60.7	–	–
Cc1ccc(-c2cnc(C)n2C)cc1NC(=O)c1ccc(OCc2ccccn2)cc1 [Example 23, N-[5-(1,2-dimethyl-1H-imidazol-5-yl)-2-methylphenyl]-4-(pyridin-2-ylmethoxy)benzamide]	73.6	–	–
Cc1nc(-c2ccc(C)c(NC(=O)c3ccc(OCc4ccccn4)cc3)c2)c[nH]1 [Example 24, N-[2-methyl-5-(2-methyl-1H-imidazol-4-yl)phenyl]-4-(pyridin-2-ylmethoxy)benzamide]	81.1	–	–
Cc1cnc(-c2ccc(C)c(NC(=O)c3ccc(OCc4ccccn4)cc3)c2)[nH]1 [Example 25, N-[2-methyl-5-(5-methyl-1H-imidazol-2-yl)phenyl]-4-(pyridin-2-ylmethoxy)benzamide]	79.5	–	–
Cc1cn(C)c(-c2ccc(C)c(NC(=O)c3ccc(OCc4ccccn4)cc3)c2)n1 [Example 26, N-[5-(1,4-dimethyl-1H-imidazol-2-yl)-2-methylphenyl]-4-(pyridin-2-ylmethoxy)benzamide]	75.7	–	–
Cc1ccc(-c2[nH]cnc2C)cc1NC(=O)c1ccc(OCc2ccccn2)cc1 [Example 27, N-[2-methyl-5-(4-methyl-1H-imidazol-5-yl)phenyl]-4-(pyridin-2-ylmethoxy)benzamide]	76.6	–	–
Cc1ccc(-c2ncc(C(F)(F)F)[nH]2)cc1NC(=O)c1ccc(OCc2ccccn2)cc1 [Example 28, N-{2-methyl-5-[5-(trifluoromethyl)-1H-imidazol-2-yl]phenyl}-4-(pyridin-2-ylmethoxy)benzamide]	91.9	–	–
Cc1ccc(-c2ncc[nH]2)cc1NC(=O)c1ccc(OCc2ccccn2)cc1 [Example 29, N-[5-(1H-imidazol-2-yl)-2-methyl-phenyl]-4-(pyridin-2-ylmethoxy)benzamide]	75.3	–	–
Cc1ccc(-c2nc3ccccc3[nH]2)cc1NC(=O)c1ccc(OCc2ccccn2)cc1 [Example 30, N-[5-(1H-benzoimidazol-2-yl)-2-methyl-phenyl]-4-(pyridin-2-ylmethoxy)benzamide]	80.1	–	–
Cc1cc(-c2nc3ccccc3[nH]2)ccc1NC(=O)c1ccc(OCc2ccccn2)cc1 [Example 31, N-[4-(1H-benzoimidazol-2-yl)-2-methyl-phenyl]-4-(pyridin-2-ylmethoxy)benzamide]	27.9	–	–
Cc1nc(C)c(-c2ccc(C)c(NC(=O)c3ccc(OCc4ccccn4)cc3)c2)s1 [Example 32, N-[5-(2,4-dimethyl1,3-thiazol-5-yl)-2-methyl-phenyl]-4-(pyridin-2-ylmethoxy)benzamide]	54.1	–	–
Cc1ccc(-c2cnn(C)c2)cc1NC(=O)c1ccc(OCc2ccccn2)cc1 [Example 33, N-[2-methyl-5-(1-methylpyrazol-4-yl)phenyl]-4-(pyridin-2-ylmethoxy)benzamide]	54.7	–	–
Cc1ccc(-c2ccnn2C)cc1NC(=O)c1ccc(OCc2ccccn2)cc1 [Example 34, N-[2-methyl-5-(2-methylpyrazol-3-yl)phenyl]-4-(pyridin-2-ylmethoxy)benzamide]	69.4	–	–
Cc1ccc(-c2c(C)nn(C)c2C)cc1NC(=O)c1ccc(OCc2ccccn2)cc1 [Example 35, N-[2-methyl-5-(1,3,5-trimethylpyrazol-4-yl)phenyl]-4-(pyridin-2-ylmethoxy)benzamide]	76.8	–	–
Cc1ccc(-c2cnn(CC(C)C)c2)cc1NC(=O)c1ccc(OCc2ccccn2)cc1 [Example 36, N-[2-methyl-5-[1-(2-methylpropyl)pyrazol-4-yl]phenyl]-4-(pyridin-2-ylmethoxy)benzamide]	26.9	–	–
